# “Also recorded” adds a separate entry of the source. No end group written: not given here.
# Experiments:
# M. luteus A270 = assay: Liquid growth inhibition assay, MIC; type: cell-based, Micrococcus luteus; details: 37° C., 18 h
# Description: (§1) Initially, the antimicrobial activity was determined by liquid growth inhibition assays, as previously described by Pedron et al.^62. Briefly, Peptone Broth and Potato Dextrose Broth (Invitrogen) were used for antibacterial and antifungal assays, respectively. Two-fold serial dilutions of peptides (0.09-50 μmol L^−1) and microorganisms (Serratia marcescens ATCC 4112, Enterobacter cloacae β-12, Micrococcus luteus A270, Bacillus megaterium ATCC 10778, Bacillus subtilis ATCC 6633, Candida albicans MDM8, and Candida tropicalis IOC 4560) were incubated at 37° C. for 18 h (for bacteria) or 24 h (for fungi), and microbial growth was assessed by absorbance measurements at 595 nm. Experiments were performed in three biological repeats.
# [1] = test system: S. epidermidis ATCC 12228; assay: Liquid growth inhibition assay, MIC; type: cell-based; details: 37° C., 18 h
# B. megaterium ATCC 10778 = assay: Liquid growth inhibition assay, MIC; type: cell-based, Bacillus megaterium; details: 37° C., 18 h
# Description: as §1
# S. marcescens ATCC 4112 = assay: Liquid growth inhibition assay, MIC; type: cell-based, Serratia marcescens; details: 37° C., 18 h
# Description: as §1
# E. cloacae β-12 = assay: Liquid growth inhibition assay, MIC; type: cell-based, Enterobacter cloacae; details: 37° C., 18 h
# Description: as §1
# C. albicans MDM8 = assay: Liquid growth inhibition assay, MIC (antifungal); type: cell-based, Candida albicans; details: 37° C., 24 h
# Description: as §1
# C. tropicalis IOC 4560 = assay: Liquid growth inhibition assay, MIC (antifungal); type: cell-based, Candida tropicalis; details: 37° C., 24 h
# Description: as §1
# human erythrocytes = assay: Hemolytic activity assay; type: cell-based; details: for Hemolytic activity, concentration of peptide needed to kill 10% of red blood cells / MHC: human erythrocytes, 1 h; for MHC: room temperature, concentration with approximately 0% of hemolytic activity; for hemolytic activity: 0.1 to 100 μmol L^−1
# Description: Method. Assays against freshly collected human erythrocytes were performed following protocols described by Pedron et al. 62. Briefly, peptide aliquots at concentrations ranging from 0.1 to 100 μmol L−1 were incubated with a suspension of erythrocytes at room temperature for 1 h. The samples were then centrifuged, and the absorbance of the supernatant was measured at 405 nm. The MHC (maximal non-hemolytic concentration) was determined as the maximal concentration at which 100% of the erythrocytes were viable. The surfactant SDS and PBS buffer were used as positive88, 89 and negative controls, respectively. Sodium heparin was used as an anticoagulant when collecting human blood. Three biological repeats were performed.
# [2] = Resistance to degradation in fetal bovine serum; type: in vitro ADME; details: for remaining at 0.5 h: read-out: remaining peptide, 30 min; for remaining at 1 h: read-out: remaining peptide, 1 h; for remaining at 2 h: read-out: remaining peptide, 2 h
# Description: The resistance to proteolytic degradation of the hybrid peptides was assessed by exposing them for 6 h to serum peptidases in a fetal bovine serum solution^68, 69 (FIG. 5a and Table S4). The peptide degradation kinetics were calculated by integrating the peak area of the peak in relation to the peptide at the beginning of the experiment (time=0) and comparing it to the integrated peak area relative to the peptides after exposure to the enzymes at time points: 0.5, 1, 2, 4, and 6 h (FIG. 5a and Table S4). […] However, AV was resistant to degradation against proteases, with almost 40% peptide content remaining after 4 h of exposure (FIG. 5a and Table S4). […] VP was almost entirely degraded after 30 min (22% of peptide remaining). […] D-amino acid substitutions have been used as alternatives to prevent the degradation of AMPs. For example, Qiu et. al. described a protonectin analog with a D-Lys residue in position 10 as an alternative to protonectin; this analog is not degraded and has higher antimicrobial activity against bacteria and fungi than the original peptide.
# Methods. Stability assays were performed following the protocol described by Torres et al.^71. Briefly, a peptide solution was added to GIBCO fetal bovine serum diluted to 25% in water and kept at 37° C. The degradation kinetics were monitored by liquid chromatography and the percentage of peptide remaining was calculated by integrating the peptide peak area. The experiments were performed as three independent replicates, and aliquots were taken at 0, 0.5, 1, 2, 4, and 6 h.
# bacterial strains = assay: Antimicrobial activity over the panel of strains; type: cell-based; details: range over strains tested
# Description: as §1
# (§2) Method. The minimal inhibitory concentration (MIC) against the ESKAPE pathogens was determined using the broth microdilution method^81, 82 in Luria-Bertani (LB) medium. The MIC value was defined as the lowest concentration of peptide at which no microbial growth was observed. A. baumannii ATCC19606, E. coli ATCC11775, E. coli AIC221, E. coli AIC222, K. pneumoniae ATCC13883, S. aureus ATCC12600 P. aeruginosa PAO1, and P. aeruginosa PA14 were incubated on agar plates, and after 24 h, three isolated colonies were inoculated to 5 mL of Luria-Bertani (LB) broth and maintained at 37° C. overnight with shaking. Peptides were then added to 96-well polystyrene microtiter plates at concentrations ranging from 0 to 128 μmol L^−1, and 5×10^5 CFU mL^−1 of each bacterium was inoculated in each well. The plates were incubated at 37° C. for 24 h. Bacterial growth was measured using a microplate reader at 610 nm. Three independent replicates were performed.
# [3] = test system: MCF-7 human breast cancer cells; assay: Anticancer activity, MTT assay; type: cell-based; details: MTT
# Description: The anticancer activity assays were performed using MCF-10A human breast epithelial cells and MCF-7 mammary cancer cells as previously described by Pedron et al. 86. Briefly, the day before treatment, the cells were incubated at 37° C. and 5% CO2 for 24 h. The cells were treated with peptides ranging from 12.5 to 100 μmol L^−1 (MCF10-A cells) and 0.8 to 100 μmol L^−1 (MCF-7 cells) for 4 h and 24 h at 37° C., and cell viability was measured using 3-(4,5-Dimethylthiazol-2-yl)-2,5-diphenyltetrazolium bromide (MTT) assays 87. Three independent replicates were performed in each case.
# A. baumannii ATCC19606 = assay: Broth microdilution MIC, ESKAPE pathogens; type: cell-based; details: LB, 37° C., 24 h
# Description: as §2
# E. coli AIC221 = assay: Broth microdilution MIC, ESKAPE pathogens; type: cell-based; details: LB, 37° C., 24 h
# Description: as §2
# E. coli AIC222 = assay: Broth microdilution MIC, ESKAPE pathogens; type: cell-based; details: LB, 37° C., 24 h
# Description: as §2
# E. coli ATCC11775 = assay: Broth microdilution MIC, ESKAPE pathogens; type: cell-based; details: LB, 37° C., 24 h
# Description: as §2
# K. pneumoniae ATCC13883 = assay: Broth microdilution MIC, ESKAPE pathogens; type: cell-based; details: LB, 37° C., 24 h
# Description: as §2
# P. aeruginosa PA14 = assay: Broth microdilution MIC, ESKAPE pathogens; type: cell-based; details: LB, 37° C., 24 h
# Description: as §2
# P. aeruginosa PAO1 = assay: Broth microdilution MIC, ESKAPE pathogens; type: cell-based; details: LB, 37° C., 24 h
# Description: as §2
# S. aureus ATCC12600 = assay: Broth microdilution MIC, ESKAPE pathogens; type: cell-based; details: LB, 37° C., 24 h
# Description: as §2
# [4] = bovine, fetal bovine serum, 25% in water, fetal bovine serum 25% in water, 37° C., 30 min
# [5] = bovine, fetal bovine serum, 25% in water, fetal bovine serum 25% in water, 37° C.
Substance,MIC M. luteus A270 (M. luteus A270),MIC S. epidermidis ATCC 12228 [1],MIC B. megaterium ATCC 10778 (B. megaterium ATCC 10778),MIC S. marcescens ATCC 4112 (S. marcescens ATCC 4112),MIC E. cloacae β-12 (E. cloacae β-12),MIC C. albicans MDM8 (C. albicans MDM8),MIC C. tropicalis IOC 4560 (C. tropicalis IOC 4560),"Hemolytic activity, concentration of peptide needed to kill 10% of red blood cells (human erythrocytes)",MHC (human erythrocytes),"remaining at 0.5 h [2, 4]","remaining at 1 h [2, 5]","remaining at 2 h [2, 5]",hemolytic activity (human erythrocytes),resistance to degradation ([2]; fetal bovine serum),MIC A. baumannii ATCC19606 (A. baumannii ATCC19606),MIC E. coli AIC221 (E. coli AIC221),MIC E. coli AIC222 (E. coli AIC222),MIC E. coli ATCC11775 (E. coli ATCC11775),MIC K. pneumoniae ATCC13883 (K. pneumoniae ATCC13883),MIC P. aeruginosa PA14 (P. aeruginosa PA14),further results
"H-GLLKRIKTLL-NH2 [Anoplin, reference compound]",1.6 µM,6.3 µM,0.8 µM,6.3 µM,3.1 µM,1.6 µM,1.6 µM,50 µmol/L,50 µmol/L,~20%,~20%,~10%,,,,,,,,,
FLGSLWRKAGTVF-NH2 [VD],25 µM,>50 µM,6.3 µM,12.5 µM,>50 µM,25 µM,6.3 µM,,>100 µmol/L,~10%,,,minimal hemolytic activity; also recorded: no hemolytic activity was detected,the greatest resistance to proteolytic degradation,,,,,,,"remaining at 6 h ([2]; bovine, fetal bovine serum, 25% in water, fetal bovine serum 25% in water, 37° C., 6 h, read-out: remaining peptide, 6 h): ~50%; MIC range of the peptide over the strains (bacterial strains): 6.3 to 25 µM"
"ILGTILGLLKGL-NH2 [Protonectin, reference compound]",3.1 µM,25 µM,3.1 µM,6.3 µM,25 µM,12.5 µM,12.5 µM,12.5 µmol/L,12.5 µmol/L,,,,,quickly degraded,16 µM,16 µM,8 µM,16 µM,64 µM,128 µM,"MCF-7 4 h LD50 ([3]; MCF-7, 4 h): 25 µmol/L; MCF-7 24 h LD50 ([3]; MCF-7, 24 h): 25 µmol/L; MIC P. aeruginosa PAO1 (P. aeruginosa PAO1): 128 µM; MIC S. aureus ATCC12600 (S. aureus ATCC12600): 8 µM"
FLGTLWGGAKGVF-NH2 [VP],>50 µM,>50 µM,>50 µM,>50 µM,>50 µM,>50 µM,>50 µM,100 µmol/L,>100 µmol/L,22%,< 20%,< 10%,minimal hemolytic activity,,128 µM,128 µM,128 µM,128 µM,128 µM,128 µM,"MIC P. aeruginosa PAO1 (P. aeruginosa PAO1): 128 µM; MIC S. aureus ATCC12600 (S. aureus ATCC12600): 128 µM; remaining peptide, 30 min ([2]; fetal bovine serum 25% in water, 37° C., 30 min): ~20%"

# Source: patent publication US20260250337A1, “HYBRID ANTIMICROBIAL PEPTIDES” (UNIVERSIDADE FEDERAL DO ABC, priority 2023, published 2026)
